Experimental data published in the supplement of paper PMC10307832.

Assays:
Experiment in all cases: relative viability (nuclei count vs DMSO), 5 days (fraction); higher = more cells survive
Axitinib + OSI-027 = compound: CNC(=O)c1ccccc1Sc1ccc2c(/C=C/c3ccccn3)n[nH]c2c1 [Axitinib] + COc1cccc2cc(-c3nc([C@H]4CC[C@H](C(=O)O)CC4)n4ncnc(N)c34)[nH]c12 [OSI-027] (partner 0.5 µM)
Method in brief: (§1)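 After 5 days of treatment, lung cancer cells in 1536-well plates were fixed and stained in a single step (final 0.05% Triton X-100, 1% formaldehyde, 1 ug/ml Hoechst) and their nuclei counted on 4× images. Treatment had been applied by pin tool the day after seeding as one drug alone or as a fixed anchor-drug dose with five library-drug doses (not always all listed) in √10 steps. Relative viability is the nuclei count of treated wells divided by that of vehicle wells, and values are medians of duplicate plates.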

Bemcentinib + Linsitinib = compound: Nc1nc(Nc2ccc3c(c2)CC[C@@H](N2CCCC2)CC3)nn1-c1cc2c(nn1)-c1ccccc1CCC2 [Bemcentinib] + C[C@]1(O)C[C@@H](c2nc(-c3ccc4ccc(-c5ccccc5)nc4c3)c3c(N)nccn32)C1 [Linsitinib] (partner 1 µM)
Method in brief: as §1

[1] = compound: CC1=CC=C(C=C1)C(=O)CN2C3=C(CCCC3)SC2=N [Pifithrin_alpha] + CC1(C)CCC(c2ccc(Cl)cc2)=C(CN2CCN(c3ccc(C(=O)NS(=O)(=O)c4ccc(N[C@H](CCN5CCOCC5)CSc5ccccc5)c(S(=O)(=O)C(F)(F)F)c4)cc3)CC2)C1 [Navitoclax] (partner 0.5 µM)
Method in brief: as §1

Bemcentinib + Trametinib = compound: Nc1nc(Nc2ccc3c(c2)CC[C@@H](N2CCCC2)CC3)nn1-c1cc2c(nn1)-c1ccccc1CCC2 [Bemcentinib] + CC(=O)Nc1cccc(-n2c(=O)n(C3CC3)c(=O)c3c(Nc4ccc(I)cc4F)n(C)c(=O)c(C)c32)c1 [Trametinib] (partner 0.02 µM)
Method in brief: as §1

Cell Line	relative viability (Axitinib + OSI-027; first compound 0.005 µM)	relative viability (Axitinib + OSI-027; first compound 0.01581 µM)	relative viability (Axitinib + OSI-027; first compound 0.05 µM)	relative viability (Axitinib + OSI-027; first compound 0.1581 µM)	relative viability (Axitinib + OSI-027; first compound 0.5 µM)	relative viability (Bemcentinib + Linsitinib; first compound 0.04 µM)	relative viability (Bemcentinib + Linsitinib; first compound 0.1265 µM)	relative viability (Bemcentinib + Linsitinib; first compound 0.4 µM)	relative viability (Bemcentinib + Linsitinib; first compound 1.265 µM)	relative viability (Bemcentinib + Linsitinib; first compound 4 µM)	relative viability ([1]; first compound 1 µM)	relative viability ([1]; first compound 3.162 µM)	relative viability ([1]; first compound 10 µM)	relative viability ([1]; first compound 31.62 µM)	relative viability ([1]; first compound 100 µM)	relative viability (Bemcentinib + Trametinib; first compound 0.04 µM)	relative viability (Bemcentinib + Trametinib; first compound 0.1265 µM)	relative viability (Bemcentinib + Trametinib; first compound 0.4 µM)	relative viability (Bemcentinib + Trametinib; first compound 1.265 µM)	relative viability (Bemcentinib + Trametinib; first compound 4 µM)
HCC-827	0.822	0.745	0.826	0.759	0.933	0.952	0.992	0.936	0.947	0.988	1.02	0.917	0.849	0.672	0.694	0.545	0.548	0.534	0.599	0.586
H3255	0.651	0.512	0.612	0.599	0.544	0.89	1.22	1.04	1.02	0.888	0.376	0.428	0.444	0.434	0.497	–	0.749	0.696	0.674	0.706
LOU-NH91	0.736	0.513	0.745	0.719	0.707	0.942	0.895	0.959	0.943	0.956	0.502	0.576	0.643	0.409	0.517	0.807	0.792	0.849	0.822	0.789
LK-2	0.202	0.168	0.193	0.191	0.186	0.836	0.57	0.677	0.551	1.05	0.862	1	0.749	0.534	0.997	0.798	0.908	0.629	0.795	0.885
EPLC-272H	0.3	0.286	0.248	0.293	0.283	–	1.08	1.28	1.16	1.19	–	0.978	1.02	0.894	1.25	0.268	0.287	0.329	0.289	0.295
